Results published in US8334239B2, “High affinity VEGF-receptor antagonists” (The Board of Regents of the University of Texas System, priority 2007, dated 2012).
Entries after “also recorded” stand apart in the source; their conditions may differ. Positions of bridges follow the written chain, without caps; N, C: chain ends. Non-standard residues stand in square brackets, D forms with d. Residues, ends and D or L forms follow the SMILES beside them. Chains are numbered I, II in the order given. *: point of attachment. Fluorescein(5-Mal) = O=C1OC2(c3ccc(O)cc3Oc3cc(O)ccc32)c2ccc(N3C(=O)CC(*)C3=O)cc21; Gly(N(CH2)2(3-indolyl)) = O=C(O)CNCCc1c[nH]c2ccccc12; Gly(N-piperonyl) = O=C(O)CNCc1ccc2c(c1)OCO2; Nrpe = C[C@@H](NCC(=O)O)c1ccccc1; NFurfurylGly = O=C(O)CNCc1ccco1; Nleu = CC(C)CNCC(=O)O; Nlys = NCCCCNCC(=O)O; Ahx = NCCCCCC(=O)O; βAla = NCCC(=O)O

Columns and labels:
[1] = target: T1, VEGFR2 (Homo sapiens, UniProt P35968); assay: VEGF-induced VEGFR2 autophosphorylation in PAE/KDR cells, Western blot; assay type: cell-based; design: allow the library to be screened against the full-length receptor in as natural an environment as possible; host or cells: PAE/KDR (porcine aortic endothelial cells expressing human KDR); conditions: for agonist activity on VEGFR2 phosphorylation: PAE/KDR cells, Western blot; for effect on VEGF-induced VEGFR2 phosphorylation (in words): monomeric peptoids, 500 μM
Protocol: Western blots. Experiments were conducted using PAE/KDR cells that were grown on 6-well plates. […] The blots were probed with Phospho-VEGF receptor 2 (Tyr1175) (19A10) rabbit monoclonal or Total VEGFR2 primary antibodies (Cell signaling) and HRP-conjugated secondary antibody (BioRad).
Functional characterization of the VEGFR2-binding peptoids. GU40C and GU40E were then tested for their ability to modulate VEGFR function. Of course, since the screen simply demanded binding of the peptoid to the receptor, it was not a given that this would be the case. […] Western blot analysis using phospho-VEGFR2-specific antibodies was then employed to monitor receptor activation.
To do so, the inventors examined the effect of the peptoid on VEGF-induced VEGFR2 autophosphorylation by Western blotting, as described earlier.
Target sequence in this assay (P35968 20-1356): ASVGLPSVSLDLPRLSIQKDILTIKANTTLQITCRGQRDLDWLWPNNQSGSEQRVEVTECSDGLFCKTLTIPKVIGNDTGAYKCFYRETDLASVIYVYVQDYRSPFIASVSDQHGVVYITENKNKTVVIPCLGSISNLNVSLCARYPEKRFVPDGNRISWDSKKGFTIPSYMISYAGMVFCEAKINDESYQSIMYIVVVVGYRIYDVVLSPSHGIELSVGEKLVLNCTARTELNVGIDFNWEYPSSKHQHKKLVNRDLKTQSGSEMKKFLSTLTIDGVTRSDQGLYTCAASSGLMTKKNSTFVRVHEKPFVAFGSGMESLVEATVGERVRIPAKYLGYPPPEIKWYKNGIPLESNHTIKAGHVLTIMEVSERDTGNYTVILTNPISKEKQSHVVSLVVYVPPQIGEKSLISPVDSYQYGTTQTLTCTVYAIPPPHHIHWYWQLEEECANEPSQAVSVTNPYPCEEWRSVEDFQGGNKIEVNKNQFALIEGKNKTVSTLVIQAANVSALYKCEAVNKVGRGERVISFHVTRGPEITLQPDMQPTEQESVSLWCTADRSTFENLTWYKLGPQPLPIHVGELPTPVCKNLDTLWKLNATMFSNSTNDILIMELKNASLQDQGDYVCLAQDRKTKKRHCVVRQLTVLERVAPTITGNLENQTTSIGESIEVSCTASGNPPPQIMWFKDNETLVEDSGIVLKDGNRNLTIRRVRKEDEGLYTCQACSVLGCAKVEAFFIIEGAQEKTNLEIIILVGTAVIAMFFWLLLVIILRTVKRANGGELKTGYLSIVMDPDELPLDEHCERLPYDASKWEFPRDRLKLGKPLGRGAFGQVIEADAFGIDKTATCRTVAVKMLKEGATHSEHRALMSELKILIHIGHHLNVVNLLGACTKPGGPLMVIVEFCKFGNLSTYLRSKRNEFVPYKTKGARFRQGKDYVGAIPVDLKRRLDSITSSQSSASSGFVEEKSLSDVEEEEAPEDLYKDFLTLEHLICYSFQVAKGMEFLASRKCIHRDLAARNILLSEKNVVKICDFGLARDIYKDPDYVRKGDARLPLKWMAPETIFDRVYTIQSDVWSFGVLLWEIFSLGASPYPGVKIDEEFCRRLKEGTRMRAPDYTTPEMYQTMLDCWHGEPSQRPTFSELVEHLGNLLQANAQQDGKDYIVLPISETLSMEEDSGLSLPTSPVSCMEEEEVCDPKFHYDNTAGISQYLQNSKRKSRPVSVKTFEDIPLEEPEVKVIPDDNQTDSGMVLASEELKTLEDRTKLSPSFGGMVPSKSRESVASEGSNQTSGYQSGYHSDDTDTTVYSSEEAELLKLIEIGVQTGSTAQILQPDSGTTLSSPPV

[2] = target: T1, VEGFR2; assay: ELISA-like binding assay, fluoresceinated peptoids on immobilized VEGFR2 extracellular domain; design: VEGFR2 extracellular domain (amino acids 1-764 fused to 6× histidine-tagged Fc of human IgG, via the peptide IEGRMD; R&D Systems); linker peptide IEGRMD (internal); Fc of human IgG (C); 6xHis (C); purchased R&D Systems; conditions: for Fold improved: binding improved compared to the monomer of the series
Protocol: ELISA based binding assay. White, clear bottom 96-well plates (Corning Inc.) were coated with of 1 μg/ml recombinant human VEGFR2 protein (R&D Systems) using the sensitizing buffer (0.621 g NaHCO3 & 0.275 g Na2CO3 dissolved on 100 ml of ddH2O, pH=9.5) overnight at 4° C. Washed with 3×200 μl of wash buffer 1×PBS with 0.05% Tween-20 and blocked with Startingblock blocking buffer (Pierce). Added 50 μl of serial dilutions of FITC labeled peptoids dissolved in Startingblock blocking buffer to each well & allowed to react for 1 h at room temperature. Washed with 5×200 μl of wash buffer 1×PBS with 0.05% Tween-20 and remaining fluorescence was measured at 520 nm using the plate reader.
The isolated peptoids are VEGFR2 ligands. Two of the ‘hits’ from this screen, GU40C and GU40E (see FIG. 2) were resynthesized, both as free compounds and with C-terminal Cys (for C-terminal fluorescein tagging via maleimide chemistry), cleaved from the beads and purified to apparent homogeneity by reverse phase HPLC. […] The association of these peptoids with VEGFR2 was evaluated using an ELISA-like assay. A commercially available fusion protein containing the VEGFR2 extracellular domain (amino acids 1-764 fused to 6× histidine-tagged Fc of human IgG, via the peptide IEGRMD; R&D Systems) was plated into 96-well plates and then mixed with various concentrations of […] Fluorescein (FITC)-labeled peptoid. After washing away unbound peptoid, the remaining fluorescence emission signal was measured at 520 nm. In this assay purified VEGFR2 protein was used instead of the whole PAE/KDR cells that over express VEGFR2, in order to confirm these compounds were binding only to the receptor.
Target sequence in this assay (P35968 20-764): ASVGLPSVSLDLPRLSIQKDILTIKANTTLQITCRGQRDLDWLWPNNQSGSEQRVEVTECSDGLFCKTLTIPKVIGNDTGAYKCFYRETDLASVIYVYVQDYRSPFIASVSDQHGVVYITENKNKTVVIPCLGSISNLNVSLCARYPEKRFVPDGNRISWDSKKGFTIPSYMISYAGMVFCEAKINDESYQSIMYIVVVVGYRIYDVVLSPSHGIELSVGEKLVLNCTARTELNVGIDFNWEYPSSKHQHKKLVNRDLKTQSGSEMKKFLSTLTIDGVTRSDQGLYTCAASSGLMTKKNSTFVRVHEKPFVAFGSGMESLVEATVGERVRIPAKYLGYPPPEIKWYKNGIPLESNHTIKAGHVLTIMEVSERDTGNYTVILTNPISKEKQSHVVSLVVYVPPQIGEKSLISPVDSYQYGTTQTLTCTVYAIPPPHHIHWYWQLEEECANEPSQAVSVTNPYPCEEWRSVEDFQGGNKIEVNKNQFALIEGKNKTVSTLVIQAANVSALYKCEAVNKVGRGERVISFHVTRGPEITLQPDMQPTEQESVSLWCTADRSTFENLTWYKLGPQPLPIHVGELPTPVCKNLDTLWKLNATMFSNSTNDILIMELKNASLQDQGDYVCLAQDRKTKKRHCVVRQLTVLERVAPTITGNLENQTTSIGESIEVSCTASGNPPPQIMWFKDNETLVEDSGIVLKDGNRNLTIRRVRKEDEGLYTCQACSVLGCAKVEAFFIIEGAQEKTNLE

[3] = target: T2, CD105 (Homo sapiens, UniProt P17813); assay: ELISA-like binding assay on immobilized CD105; conditions: same ELISA-like assay
T2 sequence (P17813 26-658): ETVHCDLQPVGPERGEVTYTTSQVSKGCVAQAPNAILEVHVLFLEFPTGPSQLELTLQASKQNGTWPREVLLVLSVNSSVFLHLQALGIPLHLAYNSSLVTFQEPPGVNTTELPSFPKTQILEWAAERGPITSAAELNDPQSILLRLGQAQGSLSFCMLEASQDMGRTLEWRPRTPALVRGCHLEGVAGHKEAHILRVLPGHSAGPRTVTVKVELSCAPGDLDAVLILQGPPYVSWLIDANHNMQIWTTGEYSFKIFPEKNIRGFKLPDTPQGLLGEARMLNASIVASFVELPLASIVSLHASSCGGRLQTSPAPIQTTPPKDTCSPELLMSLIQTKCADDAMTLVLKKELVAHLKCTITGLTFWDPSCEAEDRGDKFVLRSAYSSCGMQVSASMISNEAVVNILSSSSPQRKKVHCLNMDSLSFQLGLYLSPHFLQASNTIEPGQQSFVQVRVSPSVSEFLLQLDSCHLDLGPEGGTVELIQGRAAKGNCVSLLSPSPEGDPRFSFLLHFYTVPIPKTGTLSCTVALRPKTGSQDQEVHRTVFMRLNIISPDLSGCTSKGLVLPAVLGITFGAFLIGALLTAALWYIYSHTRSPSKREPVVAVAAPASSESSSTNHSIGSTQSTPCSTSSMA

[4] = system: GST; assay: ELISA-like binding assay on immobilized GST

Fold improved [2] [fold]	Compound	agonist activity on VEGFR2 phosphorylation [1]	effect on VEGF-induced VEGFR2 phosphorylation (in words) ([1]; 1.3 nM VEGF)	further results
	Avastin: ultra-high affinity anti-VEGF antibody employed clinically [reference compound]			effect on VEGFR2 autophosphorylation (in words) ([1]; 1 μM, 1.3 nM VEGF): completely blocked
11	CC(C)CN(CC(=O)N(CCCCN)CC(=O)N(CC(=O)N(CC(=O)N(CCCCN)CC(=O)N(CC(=O)N(CCCCN)CC(=O)N(CCCCN)CC(=O)NCCCC[C@H](NC(=O)CCNC(=O)CN(CCCCN)C(=O)CN(CCCCN)C(=O)CN(CC(C)C)C(=O)CN(CCCCN)C(=O)CN(Cc1ccc2c(c1)OCO2)C(=O)CN(C(=O)CN(CCCCN)C(=O)CN(CC(C)C)C(=O)CNCCCCN)[C@H](C)c1ccccc1)C(=O)N[C@@H](CSC1CC(=O)N(c2ccc3c(c2)C(=O)OC32c3ccc(O)cc3Oc3cc(O)ccc32)C1=O)C(N)=O)CC(C)C)Cc1ccc2c(c1)OCO2)[C@H](C)c1ccccc1)C(=O)CNCCCCN (some centres unmarked) [GU40C2] (I: H-[Nlys][Nleu][Nlys][Nrpe][Gly(N-piperonyl)][Nlys][Nleu][Nlys][Nlys][βAla]KC(Fluorescein(5-Mal))-NH2 / II: H-[Nlys][Nleu][Nlys][Nrpe][Gly(N-piperonyl)][Nlys][Nleu][Nlys][Nlys]; amide I:11-II:C; N-terminus assumed)			
	CC(C)CN(CC(=O)N(CCCCN)CC(=O)N(CCCCN)CC(N)=O)C(=O)CN(CCCCN)C(=O)CN(CC(C)C)C(=O)CN(CCCCN)C(=O)CN(Cc1ccco1)C(=O)CN(CCCCN)C(=O)CNCCc1c[nH]c2ccccc12 [GU40E, Ntrp-Nlys-Nffa-Nlys-Nleu-Nlys-Nleu-Nlys-Nlys] (H-[Gly(N(CH2)2(3-indolyl))][Nlys][NFurfurylGly][Nlys][Nleu][Nlys][Nleu][Nlys][Nlys]-NH2)	Neither peptoid at any concentration tested evinced agonist activity; also recorded: None of the peptoids exhibited agonist activity	weak antagonists	binding to CD105 [3]: did not bind detectably; binding to GST [4]: did not bind detectably; binding after pre-incubation of immobilized receptor with unlabeled VEGF ([2]; fluoresceinated peptoid): almost no binding
	Nlys-Npip-Nleu-Nlys-Npip-Nlys-Nleu-Nlys-Nlys [GU40B]	None of the peptoids exhibited agonist activity	no effect	
2	CC(C)CN(CC(=O)N(CCCCN)CC(=O)N(CCCCN)CC(=O)NCCCC[C@H](NC(=O)CCNC(=O)CN(CCCCN)C(=O)CN(CCCCN)C(=O)CN(CC(C)C)C(=O)CN(CCCCN)C(=O)CN(CC(C)C)C(=O)CN(CCCCN)C(=O)CN(Cc1ccco1)C(=O)CN(CCCCN)C(=O)CNCCc1c[nH]c2ccccc12)C(=O)N[C@@H](CSC1CC(=O)N(c2ccc3c(c2)C(=O)OC32c3ccc(O)cc3Oc3cc(O)ccc32)C1=O)C(N)=O)C(=O)CN(CCCCN)C(=O)CN(CC(C)C)C(=O)CN(CCCCN)C(=O)CN(Cc1ccco1)C(=O)CN(CCCCN)C(=O)CNCCc1c[nH]c2ccccc12 (some centres unmarked) [GU40E2] (I: H-[Gly(N(CH2)2(3-indolyl))][Nlys][NFurfurylGly][Nlys][Nleu][Nlys][Nleu][Nlys][Nlys][βAla]KC(Fluorescein(5-Mal))-NH2 / II: H-[Gly(N(CH2)2(3-indolyl))][Nlys][NFurfurylGly][Nlys][Nleu][Nlys][Nleu][Nlys][Nlys]; amide I:11-II:C; N-terminus assumed)			
9	CC(C)CN(CC(=O)N(CCCCN)CC(=O)N(CCCCN)CC(=O)NCCCCCC(=O)NCCC(=O)N[C@@H](CCCCNC(=O)CN(CCCCN)C(=O)CN(CCCCN)C(=O)CN(CC(C)C)C(=O)CN(CCCCN)C(=O)CN(CC(C)C)C(=O)CN(CCCCN)C(=O)CN(Cc1ccco1)C(=O)CN(CCCCN)C(=O)CNCCc1c[nH]c2ccccc12)C(=O)N[C@@H](CSC1CC(=O)N(c2ccc3c(c2)C(=O)OC32c3ccc(O)cc3Oc3cc(O)ccc32)C1=O)C(N)=O)C(=O)CN(CCCCN)C(=O)CN(CC(C)C)C(=O)CN(CCCCN)C(=O)CN(Cc1ccco1)C(=O)CN(CCCCN)C(=O)CNCCc1c[nH]c2ccccc12 (some centres unmarked) [GU40E4] (I: H-[Gly(N(CH2)2(3-indolyl))][Nlys][NFurfurylGly][Nlys][Nleu][Nlys][Nleu][Nlys][Nlys][Ahx][βAla]KC(Fluorescein(5-Mal))-NH2 / II: H-[Gly(N(CH2)2(3-indolyl))][Nlys][NFurfurylGly][Nlys][Nleu][Nlys][Nleu][Nlys][Nlys]; amide I:12-II:C; N-terminus assumed)			
